Results reported in US5744621A, “Irreversible HIV protease inhibitors, intermediates, compositions and processes for the preparation thereof” (Lucky Limited., priority 1992, dated 1998).

Molecular target: T1, HIV-1 protease (Human immunodeficiency virus type 1 group M subtype B, UniProt P04585)
T1 construct: 2.6 nM of HIV-1 protease
Assay: Assay for inhibitory effect on HIV protease (residual enzyme activity, HPLC of substrate cleavage)
Type: biochemical
Conditions: for Ki / kinact: HIV-1 protease 2.6 nM; for Ki / kinact / kinact/KI: pH 5.5; for Ki: inhibition constant; for kinact: rate constant of covalent bond formation, read-out: kina (converted); for kinact/KI: second order rate constant, HIV-1 protease, read-out: kina /KI (converted)
Experimental: The inhibitory effect on HIV protease of the compounds of the present invention was determined by the following method.
To a buffer solution comprising 50 mM sodium acetate, pH 5.5, 1 mM dithiothreitol(DTT), 1 mM ethylenediaminetetraacetate (EDTA), 0.75M ammonium sulfate, 0.2M sodium chloride and 0.1% NP40(NONIDET P-40; Sigma Chemical Co., U.S.A.), were added various concentrations of a compound selected from Compound Nos. 1 to 92 to prepare a preincubation solution. Inhibition reaction was started with the addition of 2.6 nM of HIV-1 protease to the preincubation solution. Each 10 μl of the reaction solution was taken at a given time interval and added to 80 μl of assay solution containing 100 μM of reaction substrate in the same buffer solution as above to assay for the residual enzyme activity. In this context, an oligopeptide(KM =20 μM) consisting of 11 amino acids, i.e., Ser-Ile-Ala-Glu-(p-NO2)-Phe-Leu-Val-Arg-Ala-Lys-His, was used as a reaction substrate, which oligopeptide was to be cleaved in two by the breakage of amide bond between (P--NO2)-Phe and Leu upon the attack of HIV protease. The reaction rate was determined by subjecting the substrate before the reaction and the product after the reaction to HPLC separation and then measuring the relative amount of the product, using the strong absorbance of (p--NO2)-Phe at 280 nm. The amount of reduction in enzyme activity according to the elapsed time were measured and the natural logarithmic values(ln) of the measured amounts were plotted against time to obtain a linear graph and kobs was calculated from the slope of the linear graph.
The inhibition constant was calculated according to the following equation: [formula] wherein: kobs is a rate constant indicating the rate of reduction in enzyme activity according to the elapsed time under the presence of a given concentration of inhibitor,
kina is a rate constant indicating the rate of chemical reaction forming covalent bond between an enzyme and an inhibitor in Michaelis-Menten complex,
KI is an inhibition constant indicating the dissociation rate of Michaelis-Menten complex into an enzyme and an inhibitor, and
[I] means the inhibitor concentration.
The above equation is applicable to an experiment carried out under the condition in which the concentration of inhibitor is far higher than that of enzyme(Steady State Kinetic). […] The inhibition constants KI and kina and second order rate constant kina /KI were obtained by inputting the value of [E]/([E]+[EI]+[EI']) into KINSIM/FITSIM program. FIG. 1 exemplifies a result of the experiment determining the binding ratio of enzymes and inhibitors, which result was obtained by reacting the enzyme and the inhibitor in various concentration ratios for a sufficient time period(at least for 30 minutes), and then plotting the relative activity of the remaining enzyme against [conc. of inhibitor]/[conc. of enzyme].

Question: With CC[C@H](C)[C@H](NC(=O)C[C@@H]1O[C@@H]1[C@H](Cc1ccccc1)NC(=O)[C@H](CC(N)=O)NC(=O)COc1ccccc1)C(=O)OC [compound 4] as the compound, how does the Ki read?
Answer: 60 nM

Question: And the kinact?
Answer: 0.0015 s⁻¹

Question: What about the kinact/KI of the same compound?
Answer: 25000 M⁻¹ s⁻¹

Question: With CC[C@H](C)[C@H](NC(=O)C[C@@H]1O[C@@H]1[C@H](CC1CCCCC1)NC(=O)[C@H](CC(N)=O)NC(=O)c1ccc2ccccc2n1)C(=O)OC [compound 5] as the compound, how does the Ki read?
Answer: 92 nM

Question: What about the kinact of the same compound?
Answer: 0.00333 s⁻¹

Question: And the kinact/KI?
Answer: 36700 M⁻¹ s⁻¹

Question: Which Ki does the source give for COC(=O)C(NC(=O)C(CCC(N)=O)NC(=O)C[C@@H]1O[C@@H]1[C@H](Cc1ccccc1)NC(=O)[C@H](CC(N)=O)NC(=O)COc1cccc2ccccc12)C(C)C (some centres unmarked) [compound 16] here?
Answer: 420 nM

Question: What about the kinact of the same compound?
Answer: 0.0025 s⁻¹

Question: What about the kinact/KI of the same compound?
Answer: 6000 M⁻¹ s⁻¹

Question: Which Ki does the source give for CC[C@H](C)[C@H](NC(=O)C[C@@H]1O[C@@H]1[C@H](Cc1ccccc1)NC(=O)[C@H](CC(N)=O)NC(=O)c1ccc2ccccc2n1)C(=O)N1CCOCC1 [compound 29] here?
Answer: > 10000 nM

Question: What does the source list for CNC(=O)[C@@H](NC(=O)C[C@@H]1O[C@@H]1[C@H](Cc1ccccc1)NC(=O)[C@H](CC(N)=O)NC(=O)c1ccc2ccccc2n1)C(C)C [compound 30]?
Answer: Ki: 22 nM; kinact: 0.00333 s⁻¹; kinact/KI: 183000 M⁻¹ s⁻¹

Question: Which results are given for CONC(=O)[C@@H](NC(=O)C[C@@H]1O[C@@H]1[C@H](Cc1ccccc1)NC(=O)[C@H](CC(N)=O)NC(=O)c1ccc2ccccc2n1)C(C)C [compound 34]?
Answer: Ki: 15 nM; kinact: 0.00267 s⁻¹; kinact/KI: 183000 M⁻¹ s⁻¹

Question: With CC[C@H](C)[C@H](NC(=O)C[C@@H]1O[C@@H]1[C@H](Cc1ccccc1)NC(=O)[C@@H](NC(=O)OCc1ccccn1)C(C)C)C(=O)OC [compound 38, N-{N-L-[[N-(2-pyridylmethoxycarbonyl)-L-valinyl)-amino]-(4R,3S)-epoxy-6-phenyl-hexanoyl}-L-isoleucine methyl ester] as the compound, how does the Ki read?
Answer: > 10000 nM

Question: Which Ki does the source give for CC(C)(C)OC(=O)N[C@@H](Cc1ccccc1)[C@H]1O[C@H]1CCc1ccccc1 [compound 51, 2-L-(t-butoxycarbonyl)amino-(3R,4S)-epoxy-1,6-diphenylhexane] here?
Answer: 7000 nM

Question: What about the kinact of the same compound?
Answer: 0.000833 s⁻¹

Question: What about the kinact/KI of the same compound?
Answer: 118 M⁻¹ s⁻¹

Question: How did the Ki turn out when CC[C@H](C)[C@H](NC(=O)OCc1ccccc1)C(=O)N[C@@H](Cc1ccccc1)[C@H]1O[C@H]1CCc1ccccc1 [compound 54, 2-L-(N-benzyloxycarbonyl-L-isoleucinyl)amino-(3R,4S)-epoxy-1,6-diphenylhexane] was run?
Answer: 1000 nM

Question: What about the kinact of the same compound?
Answer: 0.0075 s⁻¹

Question: And the kinact/KI?
Answer: 7500 M⁻¹ s⁻¹

Question: How did the Ki turn out when NC(=O)CC[C@H](NC(=O)OCc1ccccc1)C(=O)N[C@@H](Cc1ccccc1)[C@H]1O[C@H]1CCc1ccccc1 [compound 55, 2-L-(N-benzyloxycarbonyl-L-glutaminyl)amino-(3R,4S)-epoxy-1,6-diphenylhexane] was run?
Answer: 2200 nM

Question: And the kinact?
Answer: 0.00367 s⁻¹

Question: And the kinact/KI?
Answer: 1670 M⁻¹ s⁻¹

Question: How did the Ki turn out when CC(C)C[C@H](NC(=O)[C@H](CC(N)=O)NC(=O)OCc1ccccc1)[C@H]1O[C@H]1CCc1ccccc1 [compound 56, 5-L-(N-benzyloxycarbonyl-L-asparaginyl)amino-(3S,4R)-epoxy-7-methyl-1-phenyloctane] was run?
Answer: 44400 nM

Question: What about the kinact of the same compound?
Answer: 0.00483 s⁻¹

Question: And the kinact/KI?
Answer: 108 M⁻¹ s⁻¹

Question: Which results are given for NC(=O)C[C@H](NC(=O)COc1ccccc1)C(=O)N[C@@H](Cc1ccccc1)[C@H]1O[C@H]1CCc1ccccc1 [compound 57, 2-L-(N-phenoxyacetyl-L-asparaginyl)amino-(3R,4S)-epoxy-1,6-diphenylhexane]?
Answer: Ki: 12500 nM; kinact: 0.0015 s⁻¹; kinact/KI: 120 M⁻¹ s⁻¹

Question: For NC(=O)C[C@H](NC(=O)COc1ccc(F)cc1F)C(=O)N[C@@H](Cc1ccccc1)[C@H]1O[C@H]1CCc1ccccc1 [compound 58, 2-L-[N-(2,4-difluoro)phenoxyacetyl-L-asparaginyl]amino-(3R,4S)-epoxy-1,6-diphenylhexane], which Ki is on record?
Answer: 3300 nM

Question: What about the kinact of the same compound?
Answer: 0.0005 s⁻¹

Question: And the kinact/KI?
Answer: 152 M⁻¹ s⁻¹

Question: Which Ki does the source give for NC(=O)C[C@H](NC(=O)c1ccc2ccccc2[n+]1[O-])C(=O)N[C@@H](Cc1ccccc1)[C@H]1O[C@H]1CCc1ccccc1 [compound 64, 2-L-[N-(N-oxy)quinoline-2-yl-carbonyl-L-asparaginyl]amino-(3R,4S)-epoxy-1,6-diphenylhexane] here?
Answer: 3600 nM

Question: And the kinact?
Answer: 0.0015 s⁻¹

Question: And the kinact/KI?
Answer: 417 M⁻¹ s⁻¹

Question: What does the source list for NC(=O)C[C@H](NC(=O)[C@H](Cc1ccccc1)NC(=O)CCN1CCOCC1)C(=O)N[C@@H](Cc1ccccc1)[C@H]1O[C@H]1CCc1ccccc1 [compound 66, 2-L-[N-(N-morpholinepropanecarbonyl-L-phenylalanyl)-L-asparaginyl]amino-(3R,4S)-epoxy-1,6-diphenylhexane]?
Answer: Ki: 550 nM; kinact: 0.0128 s⁻¹; kinact/KI: 23300 M⁻¹ s⁻¹

Question: Which results are given for C[C@H](NC(=O)OCc1ccccc1)C(=O)N[C@@H](CC(N)=O)C(=O)N[C@@H](Cc1ccccc1)[C@H]1O[C@H]1CCc1ccccc1 [compound 67, 2-L-[N-(N-benzyloxycarbonyl-L-alanyl)-L-asparaginyl]amino-(3R,4S)-epoxy-1,6-diphenylhexane]?
Answer: Ki: 260 nM; kinact: 0.00117 s⁻¹; kinact/KI: 4500 M⁻¹ s⁻¹

Question: Which results are given for NC(=O)C[C@H](NC(=O)[C@H](Cc1ccccc1)NC(=O)OCc1ccccc1)C(=O)N[C@@H](Cc1ccccc1)[C@H]1O[C@H]1CCc1ccccc1 [compound 68, 2-L-[N-(N-benzyloxycarbonyl-L-phenylalanyl)-L-asparaginyl]amino-(3R,4S)-epoxy-1,6-diphenylhexane]?
Answer: Ki: 4000 nM; kinact: 0.000667 s⁻¹; kinact/KI: 167 M⁻¹ s⁻¹

Question: With CC(C)CC[C@@H]1O[C@@H]1[C@H](Cc1ccccc1)NC(=O)[C@H](CC(N)=O)NC(=O)OCc1ccccc1 [compound 69, 2-L-(N-benzyloxycarbonyl-L-asparagyl)amino-(3R,4S)-epoxy-7-methyl-1-phenyloctane] as the compound, how does the Ki read?
Answer: 550 nM

Question: What about the kinact of the same compound?
Answer: 0.001 s⁻¹

Question: What about the kinact/KI of the same compound?
Answer: 1830 M⁻¹ s⁻¹

Question: For O=C(O)CC[C@H](NC(=O)OCc1ccccc1)C(=O)NC[C@@H]1O[C@@H]1[C@H](Cc1ccccc1)NC(=O)[C@H](CCC(=O)O)NC(=O)OCc1ccccc1 [compound 74, 4S-1,4-bis[N-(N'-benzyloxycarbonyl-L-glutamic acidyl)amino]-5-phenyl-(2S,3R)-(Z)-epoxypentane], which Ki is on record?
Answer: > 10000 nM

Question: With CC(C)[C@H](NC(=O)OCc1cccnc1)C(=O)NC[C@@H]1O[C@@H]1[C@H](Cc1ccccc1)NC(=O)[C@@H](NC(=O)OCc1cccnc1)C(C)C [compound 78] as the compound, how does the Ki read?
Answer: 720 nM

Question: What about the kinact of the same compound?
Answer: 0.00167 s⁻¹

Question: And the kinact/KI?
Answer: 2330 M⁻¹ s⁻¹

Question: CC(C)[C@H](NC(=O)OCc1ccncc1)C(=O)NC[C@@H]1O[C@@H]1[C@H](Cc1ccccc1)NC(=O)[C@@H](NC(=O)OCc1ccncc1)C(C)C [compound 79] was tested. Which Ki did it give?
Answer: 3000 nM

Question: What about the kinact of the same compound?
Answer: 0.00167 s⁻¹

Question: And the kinact/KI?
Answer: 550 M⁻¹ s⁻¹

Question: CC(C)[C@H](NC(=O)N(C)Cc1ccccc1)C(=O)NC[C@@H]1O[C@@H]1[C@H](Cc1ccccc1)NC(=O)[C@@H](NC(=O)N(C)Cc1ccccc1)C(C)C [compound 81, 4S-1,4-bis[N-[(N'-benzylmethylamino)carbonyl-L-valinyl]amino]-5-phenyl-(2S,3R)-(Z)-epoxypentane] was tested. Which Ki did it give?
Answer: > 10000 nM

Question: How did the Ki turn out when CC(C)[C@H](NC=O)C(=O)NC[C@@H]1O[C@@H]1[C@H](Cc1ccccc1)NC(=O)[C@H](CC(N)=O)NC(=O)c1ccc2ccccc2n1 [compound 88] was run?
Answer: 850 nM

Question: And the kinact?
Answer: 0.0367 s⁻¹

Question: What about the kinact/KI of the same compound?
Answer: 43300 M⁻¹ s⁻¹

Question: Which Ki does the source give for CCC(C)[C@H](NC=O)C(=O)NC[C@@H]1O[C@@H]1[C@H](Cc1ccccc1)NC(=O)[C@H](CC(N)=O)NC(=O)c1ccc2ccccc2n1 (some centres unmarked) [compound 90] here?
Answer: 140 nM

Question: What about the kinact of the same compound?
Answer: 0.00667 s⁻¹

Question: What about the kinact/KI of the same compound?
Answer: 48300 M⁻¹ s⁻¹

Question: With NC(=O)C[C@H](NC(=O)c1ccc2ccccc2n1)C(=O)N[C@@H](Cc1ccccc1)[C@H]1O[C@H]1CNC(=O)[C@@H](NC=O)c1ccccc1 [compound 91] as the compound, how does the Ki read?
Answer: 1200 nM

Question: And the kinact?
Answer: 0.005 s⁻¹

Question: And the kinact/KI?
Answer: 4170 M⁻¹ s⁻¹

Question: What does the source list for NC(=O)C[C@H](NC(=O)c1ccc2ccccc2n1)C(=O)N[C@@H](Cc1ccccc1)[C@H]1O[C@H]1CNC(=O)[C@H](Cc1ccccc1)NC=O [compound 92]?
Answer: Ki: 1400 nM; kinact: 0.00333 s⁻¹; kinact/KI: 2330 M⁻¹ s⁻¹

Question: Which Km (oligopeptide substrate of 11 amino acids, read-out: KM of reaction substrate) does the source give for “Ser-Ile-Ala-Glu-(p-NO2)-Phe-Leu-Val-Arg-Ala-Lys-His [reference compound]” here?
Answer: 20 µM
